# Laboratory results reported in PMC9858427, “Design, synthesis and biological evaluation of 2-((4-sulfamoylphenyl)amino)-pyrrolo[2,3-d]pyrimidine derivatives as CDK inhibitors” (Journal of Enzyme Inhibition and Medicinal Chemistry, 2023).
# Test system: MIA PaCa-2 cells
# Test: Cell cycle analysis by PI staining and flow cytometry
# Assay type: cell-based, human
# Settings: 24 h treatment
# Protocol: MIA PaCa-2 cells were incubated with test compound at given concentration for indicated time in 6 well plates. The cells were collected and washed with cold PBS for two times. For cell cycle analysis, cells were fixed with 1 ml of 70% ethanol at −20 °C overnight then re-suspended with 400 µL binding buffer at density of 10^6 cells/mL, with PI staining for 30 min at room temperature. DNA contents were analysed by a BD Accuri C6 flow cytometry (BD Biosciences, Mountain View, CA, USA). For cell apoptosis analysis, after centrifugation and removal of the supernatants, cells were resuspended in 500 µL of 1 ×binding buffer which was then added to 5 µL of annexin V-FITC and incubated at room temperature for 10 min. After adding 10 µL of PI the cells were incubated at room temperature for another 10 min, and their fluorescence intensity evaluated by a BD Accuri C6 (BD Biosciences, Mountain View, CA, USA).
compound,measurement,setting,value
"CN(C)C(=O)c1cc2cnc(Nc3ccc(S(N)(=O)=O)cc3)nc2n1C1CCCC1 [compound 2g, 7-Cyclopentyl-N,N-dimethyl-2-((4-sulfamoylphenyl)amino)-7H-pyrrolo[2,3-d]pyrimidine-6-carboxamide]",effect on cell cycle,0.1 µM,cell cycle arrest at G1 phase
same,effect on cell cycle,0.3 and 1.0 µM,modest G2/M-arrested effect
